These results are taken from paper PMC4866688, “Trypanosoma brucei DHFR-TS Revisited: Characterisation of a Bifunctional and Highly Unstable Recombinant Dihydrofolate Reductase-Thymidylate Synthase” (PLoS Neglected Tropical Diseases, 2016).

For assay [1], the system named is T. brucei bloodstream-form 'single marker' S427. The assay can be described thus: Growth inhibition of wild type T. brucei, 72 h, resazurin-based assay. Format: cell-based. As to conditions: Trypanosoma brucei. On the procedure: Wild type (WT) T. brucei bloodstream-form ‘single marker’ S427 were cultured in HMI9T medium supplemented with 2.5 μg ml^-1 G418 to maintain expression of T7 RNA polymerase and the tetracycline repressor protein [27]. HMI9T medium (standard media for T. brucei cell culture) contains high concentrations of folate (~9 μM) and thymidine (~160 μM) principally from IMDM and 10% Serum Plus components. A medium based on HMI9T, only lacking Serum Plus, folate and thymidine was prepared in-house, named trypanosome base media (TBM; the residual folate is provided by the serum component). A comparison of these media is described in S2 Table. WT T. brucei cells grow normally in TBM and the rate of growth is similar to HMI9T in TBM with no supplementation, supplementation with 9 μM folate, 160 μM thymidine or supplementation with both folate and thymidine (7–8 h doubling time).
EC50 of antifolates against T. brucei were determined in 96-well microtitre plates. Serial doubling dilutions of antifolate drugs (10–50 mM stocks prepared in DMSO) were prepared in 100 μl of the appropriate medium and trypanosomes (resuspended in the same medium) added in 100 μl to give a final concentration of 2.5 × 10^3 cells ml^-1. All wells, including controls, contained a final volume of 0.5% DMSO. Cultures were incubated for 72 h at 37°C / 5% CO2 before cell density was determined using a resazurin-based assay. EC50 values were calculated using GraFit v 5.0.13 (Erithacus Software) with a 3-parameter non-linear regression from triplicate readings. Antifolates were tested against parasites cultured in TBM; this allowed for the addition of thymidine (160 μM) and folate (9 μM) respectively.
On the technique in general: The colour change of resazurin is a common sign of viable cells or microbes.

In assay [2] the target is T1, T. brucei DHFR (Tsf-TbDHFR-TS) (Trypanosoma brucei brucei, UniProt Q27783). In words: Inhibition of DHFR activity of recombinant Tsf-TbDHFR-TS (spectrophotometric, 340 nm). The note with it: for Modality of inhibition of DHFR: with respect to DHF.
Procedure: DHFR activity was determined spectrophotometrically at 340 nm [18]. DHFR (5 nM) was pre-incubated with 100 μM NADPH (Medford) in assay buffer (50 mM HEPES, pH 7.4, containing 100 mM KCl) for 1 min at 25°C (1 ml final assay volume), before the addition of 100 μM DHF (Sigma Aldrich). […] The Km^app values for DHFR substrates were determined by varying the concentration of one substrate in the presence of a fixed saturating concentration of the other. IC50 values were determined using 8-point doubling dilutions of inhibitor under the above standard assay conditions.
Results were analysed by non-linear regression using GraFit v 5.0.13 (Erithacus Software). Km^app values were determined using the Michaelis-Menten equation. IC50 values were determined using eq 1 and Ki values calculated using the Cheng-Prusoff eq 2 [23].
Assay [3] addresses T1, T. brucei DHFR (Tsf-TbDHFR-TS). The assay can be described thus: Kinetic analysis of DHFR activity (substrates). The format is biochemical. Also noted: The open reading frame of DHFR-TS was amplified by PCR from T. brucei gDNA using specific oligonucleotides; made in house; host or cells: thyA- E. coli derived from BL21 Star (DE3). The note with it: for Activity as substrate for T. brucei DHFR: <17,000-fold (folate) and <2,300-fold (pterins) compared to DHF as substrate.

For assay [4], the target named is T2, T. brucei TS (Tsf-TbDHFR-TS) (Trypanosoma brucei brucei, UniProt Q27783).
T2 construct: The open reading frame of DHFR-TS was amplified by PCR from T. brucei gDNA using specific oligonucleotides; made in house; host or cells: thyA- E. coli derived from BL21 Star (DE3); unpurified clarified lysate
In words: Inhibition of TS activity of Tsf-TbDHFR-TS in clarified thyA- E. coli lysate. Format: biochemical. As to conditions: for TS Ki, T. brucei / Ki: 100 μM CH2THF, 200 μM dUMP, 200 nM Tsf-TbDHFR-TS, Inactive * = no inhibition at 25 μM, ** = no inhibition at 100 μM; for Ki: TS Ki, T. brucei. On the procedure:
(§1) The initial characterisation of TS was also carried out using a spectrophotometric assay. […] Enzymatic reactions were initiated by the addition of CH2THF (200 μM, Shircks Laboratories) and initial rates of CH2THF oxidation to DHF monitored by the increase in absorbance at 340 nm (ε = 6,200 M^-1 cm^-1). […] Residual 5-[^3H]-dUMP was removed by the addition of 200 μl of 10% (w/v) activated charcoal (Sigma). Aliquots (100 μl) of the supernatants were added to 2 ml of scintillation fluid (Pico-Fluor 40™, Packard Bioscience) and radioactivity determined using a Beckmann LS 6500 Scintillation Counter. To determine TS activity in clarified T. brucei lysates the incubation time was increased to 30 min and the assay volume was increased to ~200 μl. […] For stability experiments all lysates were desalted using 0.5 ml Zeba Spin Desalting Columns (7K MWCO). Protein concentrations were determined using the BioRad protein assay based on the method of Bradford. Inhibitors (8-point doubling dilutions) were assayed using the radiometric method in the presence of 100 μM CH2THF, 200 μM dUMP and 200 nM Tsf-TbDHFR-TS.
Target sequence in this assay (Q27783 whole entry): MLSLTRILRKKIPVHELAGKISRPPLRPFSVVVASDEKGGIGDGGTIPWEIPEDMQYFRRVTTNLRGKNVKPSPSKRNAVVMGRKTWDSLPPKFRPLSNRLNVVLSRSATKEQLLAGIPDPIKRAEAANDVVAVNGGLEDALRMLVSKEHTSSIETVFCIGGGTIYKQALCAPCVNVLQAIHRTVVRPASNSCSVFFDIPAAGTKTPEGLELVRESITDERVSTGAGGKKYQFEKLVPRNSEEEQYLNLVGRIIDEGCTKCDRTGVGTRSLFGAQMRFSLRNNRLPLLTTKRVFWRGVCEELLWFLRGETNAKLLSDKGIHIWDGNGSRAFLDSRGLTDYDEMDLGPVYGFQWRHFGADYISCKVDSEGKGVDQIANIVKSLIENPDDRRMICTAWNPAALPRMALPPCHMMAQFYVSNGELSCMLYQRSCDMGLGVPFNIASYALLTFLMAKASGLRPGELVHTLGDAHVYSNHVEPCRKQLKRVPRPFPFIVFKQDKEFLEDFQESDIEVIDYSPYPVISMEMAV
Target sequence in this assay (P0A6P1 whole entry, further chain): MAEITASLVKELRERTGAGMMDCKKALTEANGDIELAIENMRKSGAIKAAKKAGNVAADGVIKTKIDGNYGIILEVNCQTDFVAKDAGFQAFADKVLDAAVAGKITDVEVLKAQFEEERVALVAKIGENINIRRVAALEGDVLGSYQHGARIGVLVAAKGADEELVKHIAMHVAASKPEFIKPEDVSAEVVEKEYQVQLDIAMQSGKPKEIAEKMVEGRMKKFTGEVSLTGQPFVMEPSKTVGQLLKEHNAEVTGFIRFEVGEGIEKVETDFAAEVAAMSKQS

In the next assay the target is Human DHFR. As to conditions: cited from earlier work.
The target of a further assay is Human TS. The note with it: cited from earlier work.
The target in assay [5] is T2, T. brucei TS (Tsf-TbDHFR-TS). In words: Stabilisation of recombinant T. brucei TS activity in desalted, diluted lysate. Format: biochemical. On the procedure:
as §1
Target sequence in this assay (Q27783 whole entry): as the sequence (Q27783 whole entry) above
Target sequence in this assay (P0A6P1 whole entry partner): as the sequence (P0A6P1 whole entry, further chain) above

Where [6] appears, read: TBM (folate and thymidine deficient), read-out: EC50, No addition.
Setting [7] is: TBM + folate (9 μM), read-out: EC50, + Folate.
[8] abbreviates: TBM + thymidine (160 μM) + folate (9 μM), read-out: EC50, + Thymidine + Folate.
Where [9] appears, read: TBM + thymidine (160 μM), read-out: EC50, + Thymidine.
The mark [10] stands for this setting: DHFR Ki (competitive inhibition, global fit, Fig 5), varying DHF, fixed amounts of inhibitor, non-linear regression.
[11] abbreviates: DHFR Ki, T. brucei, recombinant TbDHFR-TS, from IC50 (Cheng-Prusoff) or Morrison equation for tight binders, Inactive ** = no inhibition at 100 μM.

Several values for one entry are separate records, joined by “and”; a condition that tells them apart may be missing. Equal entries are not always repeated. Where two headings read alike, the source gives them in different places.

T1 sequence (Q27783 whole entry): as the sequence (Q27783 whole entry) above

Broadly, the Ki is the equilibrium dissociation constant of an inhibitor or competing ligand from its target. As to `COc1cc(Cc2cnc(N)nc2N)cc(OC)c1OC` [Trimethoprim, trimethoprim], the EC50 came to 48.8 ± 3.7 µM in assay [1] (setting [6]), 170 ± 28 µM in assay [1] (setting [7]), 145 ± 22 µM in assay [1] (setting [8]) and 59.8 ± 8.6 µM in assay [1] (setting [9]). Moreover, the Ki amounted to 0.0114 ± 0.0012 µM in assay [2] (setting [10]) and 0.0176 ± 0.0015 µM in assay [2] (setting [11]). Besides, the “Modality of inhibition of DHFR” value in assay [2] was “competitive inhibitors”.

In general, Km refers to the substrate concentration at which the rate is half of its maximum. Turning to `NC(=O)C1=CN([C@@H]2O[C@H](COP(=O)(O)OP(=O)(O)OC[C@H]3O[C@@H](n4cnc5c(N)ncnc54)[C@H](OP(=O)(O)O)[C@@H]3O)[C@@H](O)[C@H]2O)C=CC1` [NADPH], the Km in assay [3] (Tsf-TbDHFR-TS, purified, read-out: NADPH Km^app) was 1.7 ± 0.2 µM.

As to `Nc1nc(=O)c2c([nH]1)NCC(CNc1ccc(C(=O)N[C@@H](CCC(=O)O)C(=O)O)cc1)=N2` [DHF, dihydrofolate], the Km in assay [3] (Tsf-TbDHFR-TS, purified, 50 mM HEPES pH 7.4, 100 mM KCl, read-out: DHF Km^app) came to 4.1 ± 0.6 µM; in assay [3] (Tsf-cleaved TbDHFR-TS, read-out: DHF Km^app), 4.2 ± 0.5 µM; in assay [3] (purified enzyme, read-out: DHFR Km^app (Fig 4 legend)), 4.1 ± 0.6 µM.

`COc1cc(NCc2ccc3nc(N)nc(N)c3c2C)cc(OC)c1OC` [Trimetrexate, trimetrexate]: the EC50 in assay [1] (setting [6]) is 0.32 ± 0.02 µM; in assay [1] (setting [7]), 1.23 ± 0.06 µM; in assay [1] (setting [8]), 4.09 ± 0.35 µM; in assay [1] (setting [9]), 2.82 ± 0.36 µM. In addition, the “TS Ki, T. brucei” value in assay [4] is reported as “Inactive ^*”. In addition, the Ki in assay [2] (setting [11]) is 0.0006 µM and 0.000597 µM. Besides, the “Modality of inhibition of DHFR” value in assay [2] was “tight-binding inhibitors”.

As for `Nc1nc2ncc([C@H](O)[C@H](O)CO)nc2c(=O)[nH]1` [neopterin], the “Activity as substrate for T. brucei DHFR” value in assay [3] was “inactive”.

For `Cc1nc2ccc(CN(C)c3ccc(C(=O)N[C@@H](CCC(=O)O)C(=O)O)s3)cc2c(=O)[nH]1` [Raltitrexed, raltitrexed], the EC50 in assay [1] (setting [6]) was 0.038 ± 0.001 µM; in assay [1] (setting [7]) it was 64.8 ± 4.3 µM; in assay [1] (setting [8]), over 250 µM; in assay [1] (setting [9]) it was over 250 µM. Moreover, the Ki at Human DHFR (ref Jackman et al. [12]) was 0.093 µM; at Human TS (ref Jackman et al. [12]) it was 0.06 µM; in assay [4], 0.215 ± 0.018 µM; in assay [2] (setting [10]), 0.0704 ± 0.0072 µM; in assay [2] (setting [11]), 0.0931 ± 0.0079 µM. Moreover, in assay [2], the “Modality of inhibition of DHFR” value is on record as “competitive inhibitors”.

In the case of `C[C@H](O)[C@H](O)C1=Nc2c(nc(N)[nH]c2=O)NC1` [dihydrobiopterin], in assay [3], the “Activity as substrate for T. brucei DHFR” value was “inactive”.

Take `O=c1ccn([C@H]2C[C@H](O)[C@@H](COP(=O)(O)O)O2)c(=O)[nH]1` [dUMP, deoxyuridine monophosphate]: the “Increase in stability of TS activity” value in assay [5] (200 μM dUMP vs no dUMP) stood at 700 fold. Moreover, the EC50 in assay [5] (absence of CH2THF, diluted lysate incubated 10 min, read-out: Half maximal concentration required to stabilise TS activity) worked out at 12.6 ± 2.5 µM.

For the compound `CN(Cc1cnc2nc(N)nc(N)c2n1)c1ccc(C(=O)N[C@@H](CCC(=O)O)C(=O)O)cc1` [Methotrexate, methotrexate], the EC50 in assay [1] (setting [6]) was found to be 0.012 ± 0.001 µM; in assay [1] (setting [7]) it was 1.31 ± 0.13 µM; in assay [1] (setting [8]) it was 8.16 ± 2.78 µM; in assay [1] (setting [9]), 0.12 ± 0.03 µM. Also, the “Modality of inhibition of DHFR” value in assay [2] is on record as “tight-binding inhibitors”.

Turning to `O=c1[nH]c(=O)n([C@H]2C[C@H](O)[C@@H](COP(=O)(O)O)O2)cc1F` [FdUMP, 5-fluorodeoxyuridine monophosphate], the Ki is 0.0017 µM on Human TS (ref Dolnick and Cheng [32]); 0.014 µM and 0.0138 µM in assay [4]. Further, in assay [4] (dUMP-competitive), the “Modality of inhibition of TS” value is reported as “tight-binding inhibition”. Moreover, the “DHFR Ki, T. brucei” value in assay [2] (recombinant TbDHFR-TS, from IC50 (Cheng-Prusoff) or Morrison equation for tight binders, Inactive ** = no inhibition at 100 μM) is “Inactive ^**”.

For `Cc1ccc2nc(N)[nH]c(=O)c2c1Sc1ccncc1` [Nolatrexed, nolatrexed], the EC50 stood at 21.8 ± 2 µM in assay [1] (read-out: EC50, + Folate); 32.7 ± 4.7 µM in assay [1] (read-out: EC50, + Thymidine); 39.6 ± 7.2 µM in assay [1] (read-out: EC50, + Thymidine + Folate); 33.8 ± 3.7 µM in assay [1] (read-out: EC50, No addition). The “DHFR Ki, Human” value in the assay on Human DHFR (ref Webber et al. [10]) is given as “Inactive^h”. Besides, the Ki was 0.039 µM and 0.0394 µM in assay [4]; 0.348 ± 0.03 µM in assay [2] (setting [11]).

Take `CCc1nc(N)nc(N)c1-c1ccc(Cl)cc1` [Pyrimethamine, pyrimethamine]: the EC50 in assay [1] (setting [6]) came out at 2.26 ± 0.32 µM; in assay [1] (setting [7]), 6.32 ± 0.71 µM; in assay [1] (setting [8]), 6.87 ± 0.33 µM; in assay [1] (setting [9]), 2.01 ± 0.34 µM. In assay [4], the “TS Ki, T. brucei” value is given as “Inactive ^**”. Further, the “Modality of inhibition of DHFR” value in assay [2] is on record as “competitive inhibitors”.

`OCCS` [2-mercaptoethanol]: the EC50 in assay [4] (reducing agent at higher concentrations, clarified lysate) was about 100000 µM.

Consider `Nc1nc(=O)c2nc(CNc3ccc(C(=O)N[C@@H](CCC(=O)O)C(=O)O)cc3)cnc2[nH]1` [Folic acid], for which the “Activity as substrate for T. brucei DHFR” value in assay [3] was “inactive”.

As to `C[C@H](O)C(=O)C1=Nc2c(nc(N)[nH]c2=O)NC1` [sepiapterin], the “Activity as substrate for T. brucei DHFR” value in assay [3] was “inactive”.

As for `Nc1nc2[nH]cc(CCc3ccc(C(=O)N[C@@H](CCC(=O)O)C(=O)O)cc3)c2c(=O)[nH]1` [Pemetrexed, pemetrexed], the EC50 was 0.02 ± 0.001 µM in assay [1] (setting [6]), 12.9 ± 1.1 µM in assay [1] (setting [7]), over 250 µM in assay [1] (setting [8]) and over 250 µM in assay [1] (setting [9]). Also, the Ki on Human DHFR (ref Shih et al. [11]) is 0.007 µM; in assay [4], 20.5 µM; in assay [2] (setting [11]), 0.29 ± 0.02 µM.

Consider biopterin, for which, in assay [3], the “Activity as substrate for T. brucei DHFR” value is “inactive”.
